How the values were obtained:
[1] = Absorption maxima of the chromogen and associated extinction coefficients; type: physicochemical; settings: 0.1 mole/l. potassium phosphate buffer (pH 7.0); for ε (extinction coefficient): at the absorption maximum of the chromogen
Text: 1. Wavelengths of the absorption maxima of the chromogen and the associated extinction coefficients (ε).
Measurement in 0.1 mole/l. potassium phosphate buffer (pH 7.0) at the absorption maximum of the chromogen.

[2] = target: T1, β-galactosidase (Escherichia coli, UniProt P00722); experiment: Enzyme activity: extinction change per minute with identical amounts of β-galactosidase (sensitivity and enzymatic cleavage rate of substrates); type: biochemical; settings: measured at the absorption maximum of the particular chromogen (405/376/384/408 nm), 0.05M potassium phosphate buffer pH 7.0
T1 construct: not the CEDIA donor/acceptor fragments
Procedure: 2. Sensitivity comparison of the substrates and of their enzymatic cleavage rate.
The extinction change per minute (mE/min.) in the region of the absorption maximum (see Table 1) of the particular chromogen was determined with the use of identical amounts of the enzyme β-galactosidase: for the precise conditions see Example 4, II a) and b).
1) 0.05M potassium phosphate buffer, pH 7.0
2) 10 mmole/liter magnesium chloride solution
3) 69.8% (v/v) mercaptoethanol solution
4) p-galactosidase (Boehringer Mannheim GmbH, order No. 105 031)
5) substrate, 5.9 mg./ml. in solution a)
Pre-incubation: the following substances were pipetted into plastic cuvettes: […]
After mixing, the reaction was initiated: […]
Δ/min. was calculated from the linear range.

[3] = tested on: β-galactosidase formed from EA22 enzyme acceptor and ED4-thyroxine T4 conjugate; experiment: T4/CEDIA test (thyroxine T4 as hapten, monoclonal antibodies against T4), gradient of the calibration curve; type: biochemical; settings: Hitachi 704, 37° C., substrate 1 mg./ml., 376 or 415 nm, percentage of 2-nitrophenyl-β-galactoside (=100%)
Procedure: 3. Evaluation in the T4/CEDIA (CEDIA with thyroxine T4 as hapten and monoclonal antibodies against thyroxine T4).
The criterion for the evaluation of the individual substrates was the gradient of the calibration curve.
I) Carrying out of the T4/CEDIA test
Definitions: EA=enzyme acceptor; ED=enzyme donor; EA22 =cloned enzyme acceptor for CEDIA; ED4 =cloned enzyme donor for CEDIA. […] The amino acid sequences of these polypeptides are there disclosed.
ΔE/min. was measured in the interval of 9-10 minutes.
Calibration curves were produced for all substrates. Of these curves, the gradients were compared. [formula]
Gradient expressed as percentage value of the 2-nitrophenyl-β-galactoside (=100%) for T4/CEDIA.

[4] = tested on: β-galactosidase formed from EA22 enzyme acceptor and ED4-thyroxine T4 conjugate; settings: prior art substrate of U.S. Pat. No. 4,708,929; cited from earlier work

T1 sequence (P00722 2-1024): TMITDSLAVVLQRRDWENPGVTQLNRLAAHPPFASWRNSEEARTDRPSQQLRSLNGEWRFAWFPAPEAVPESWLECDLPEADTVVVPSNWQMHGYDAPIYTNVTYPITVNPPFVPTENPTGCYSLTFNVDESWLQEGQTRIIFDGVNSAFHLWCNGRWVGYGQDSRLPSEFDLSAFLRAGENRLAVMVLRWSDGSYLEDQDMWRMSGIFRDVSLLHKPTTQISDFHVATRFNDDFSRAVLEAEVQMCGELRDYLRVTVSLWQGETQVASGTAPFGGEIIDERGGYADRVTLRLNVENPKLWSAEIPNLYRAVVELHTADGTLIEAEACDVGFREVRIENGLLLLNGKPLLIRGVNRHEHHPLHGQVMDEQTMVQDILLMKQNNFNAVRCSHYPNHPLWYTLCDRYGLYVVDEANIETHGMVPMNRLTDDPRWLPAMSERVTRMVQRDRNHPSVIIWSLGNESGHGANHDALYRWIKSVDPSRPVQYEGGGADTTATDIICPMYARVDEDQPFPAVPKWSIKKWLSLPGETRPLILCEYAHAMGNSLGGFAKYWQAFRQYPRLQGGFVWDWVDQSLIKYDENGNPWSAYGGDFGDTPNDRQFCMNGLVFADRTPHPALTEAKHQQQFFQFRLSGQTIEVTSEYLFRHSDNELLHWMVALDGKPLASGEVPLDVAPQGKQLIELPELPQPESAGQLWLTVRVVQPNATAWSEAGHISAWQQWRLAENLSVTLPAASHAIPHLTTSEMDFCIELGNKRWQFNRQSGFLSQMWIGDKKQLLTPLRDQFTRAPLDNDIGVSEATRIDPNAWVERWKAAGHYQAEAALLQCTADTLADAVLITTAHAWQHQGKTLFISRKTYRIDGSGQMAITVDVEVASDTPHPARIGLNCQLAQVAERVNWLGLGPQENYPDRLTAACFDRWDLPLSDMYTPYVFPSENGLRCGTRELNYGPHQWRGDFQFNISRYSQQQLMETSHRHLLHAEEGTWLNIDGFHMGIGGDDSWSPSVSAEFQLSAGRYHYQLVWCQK

**Q.** Which lambda max [1] does the source give for `O=[N+]([O-])c1ccc(O)c(C(F)(F)F)c1` [2-CF3-4-nitrophenol, 2-Trifluoromethyl-4-nitrophenol] here?
**A.** 384 nm

**Q.** What about the “ε (extinction coefficient)” value [1] of the same compound?
**A.** 18800 L/mol/cm

**Q.** Which “extinction change per minute” value [2] does the source give for `O=[N+]([O-])c1ccccc1O[C@@H]1O[C@H](CO)[C@H](O)[C@H](O)[C@H]1O` [oNPG, 2-nitrophenyl-β-D-galactopyranoside, reference compound] here?
**A.** 0.024 mE/min.

**Q.** And the “relative gradient of the calibration curve” value [3]?
**A.** 100%

**Q.** What about the “sensitivity as chromogenic enzyme substrate for CEDIA” value [4] of the same compound?
**A.** low sensitivity

**Q.** What does the source list for `O=[N+]([O-])c1ccc(O[C@@H]2O[C@H](CO)[C@H](O)[C@H](O)[C@H]2O)c(C(F)(F)F)c1` [Example 2-CF3-4-NPG, 2-trifluoromethyl-4-nitrophenyl-β-D-galactopyranoside]?
**A.** extinction change per minute [2]: 0.109 mE/min.; relative gradient of the calibration curve [3]: 528%

**Q.** What does the source list for `N#Cc1cc([N+](=O)[O-])ccc1O[C@@H]1O[C@H](CO)[C@H](O)[C@H](O)[C@H]1O` [Example 2-CN-4-NPG, 2-cyano-4-nitrophenyl-β-D-galactopyranoside]?
**A.** extinction change per minute [2]: 0.150 mE/min.; relative gradient of the calibration curve [3]: 561%

**Q.** With `O=[N+]([O-])c1ccc(O[C@@H]2O[C@H](CO)[C@H](O)[C@H](O)[C@H]2O)c(Cl)c1` [Example 2-Cl-4-NPG, 2-chloro-4-nitrophenyl-β-D-galactopyranoside, reference compound] as the compound, how does the “extinction change per minute” value [2] read?
**A.** 0.085 mE/min.

**Q.** What about the “relative gradient of the calibration curve” value [3] of the same compound?
**A.** 494%

**Q.** With `N#Cc1cc([N+](=O)[O-])ccc1O` [2-CN-4-nitrophenol, 2-Hydroxy-5-nitrobenzonitrile] as the compound, how does the lambda max [1] read?
**A.** 376 nm

**Q.** And the “ε (extinction coefficient)” value [1]?
**A.** 15700 L/mol/cm

**Q.** With `O=[N+]([O-])c1ccc(O)c(Cl)c1` [2-Cl-4-nitrophenol] as the compound, how does the lambda max [1] read?
**A.** 405 nm

**Q.** What about the “ε (extinction coefficient)” value [1] of the same compound?
**A.** 16600 L/mol/cm

**Q.** With `O=[N+]([O-])c1ccccc1O` [2-nitrophenol] as the compound, how does the lambda max [1] read?
**A.** 408 nm

**Q.** And the “ε (extinction coefficient)” value [1]?
**A.** 2040 L/mol/cm
